US20110065749A1, “METHOD AND PHARMACEUTICAL COMPOSITION FOR TREATMENT OF MENTAL DISORDERS” (ACTIVE CO. LTD., priority 2008, published 2011)
Where a name gives a salt, the structure may show the parent alone.

Key:
Format in all cases: in vivo, human
Fibromyalgia [1] = assay: Case 18: fibromyalgia (4) patient; settings: before Cephadol
Text: Case 18: Fibromyalgia (4)
A person (housewife) is a patient with depression, having received regular medical treatment since seven years ago. […] However, a diagnosis with autoimmune disease or inflammatory disease was negative from their blood test. Due to back pain and fingertip pain, they were unable to make household work, and it was painful for them to hold even a light object by hand. They had pain at 15 points among the 18 tender points of the whole body, and was diagnosed with fibromyalgia. […] They had to stay in bed all day long, and such a condition lasted for the long term.

Fibromyalgia [2] = assay: Case 16: fibromyalgia (2) patient; settings: before Cephadol
Text: […] There were persistent systemic malaise, lassitude, depressed mood, sleeplessness, neck stiffness and systemic pain. Their score of depression on Hamilton D scale was 25 to 28. No hematological abnormality was detected. As a result of overall judgment based on examinations including a tender point examination, they were diagnosed as having fibromyalgia. They were unresponsive to tricyclic or tetracyclic antidepressants, SSRIs, SNRIs, and Moclobemide. Then, they continued the treatment with 60 mg/day fluoxetine. […] It was concluded that the onset of their depression was due to the systemic pain, and the depression was improved by the drastic improvement of the systemic pain.

[3] = test system: manic state of bipolar I disorder; assay: Case 3: manic-depressive illness patient; settings: 1,200 mg, before Cephadol
Experimental: Case 3: Manic-Depressive Illness Patient was a person, who had continuously been in a manic state of bipolar I disorder for over one month. An antiepileptic drug, or 1,200 mg of Limas®, was ineffective. Antipsychotic drugs were not usable due to significant side effects. […] When they discontinued the administration of Cephadol®, the manic state appeared after 5 days.

depression = assay: Case 9: depressed symptoms patient, HAMD; settings: 40 mg, before Cephadol
Text: For evaluation of the state of depression, for example, Hamilton's rating scale for depression (HAMD) is available. The HAMD was developed by Max Hamilton in 1960 for the purpose of measuring the severity of a patient diagnosed with depression (Hamilton, M., Journal of Neurology, Neurosurgery & Psychiatry, 23-56-62 (1960) and Hamilton, M., “Development of rating scale for primary depressive illness”, British Journal of Social and Clinical Psychology, 6: 278-296 (1967)). In view of its high usefulness, it is a representative scale of evaluation for depression, widely used in clinical researches and practices. The 17 item version is used for clinical trials of antidepressants in Japan, whereas the 21 item version and the 24 item version are used in Europe or other countries.
When the severity is calculated using Hamilton's rating scale for depression (HAMD), each item is evaluated with three grades of 0-2, or five grades of 0-4. For example, the case is diagnosed as severe where the point is 20 or higher and, as the point decreases, the symptom is diagnosed as being improved.
Case 9: Depressed Symptoms
Administration to the patient of 75 mg/day Cephadol® reduced the HAMD score from 20 points to 7 points after 3 days.

Fibromyalgia [4] = assay: Case 15: fibromyalgia (1) patient; settings: maximum doses, three years, before Cephadol
Experimental: They then visited the inventor's clinic. When the inventor started the treatment with 75 mg/day Cephadol®, systemic pain of the patient was improved in two days. […] As a result, they became able to perform usual household work, go outside, and further make a trip.

Bulimia = assay: Case 8: bulimia (2) patient; settings: 40 mg
Text: Patient was a person, who had been suffering from bulimia. The bulimia persisted even after their marriage and childbearing.

Alcoholism = assay: Case 6: alcoholism patient; settings: before Cephadol
Text: Case 6: Alcoholism Patient was a office worker, who was drinking 1 to 2 liters of beer and 3 to 5 glasses of distilled spirit or whisky with water every day. They were drinking alcohol in daytime on Sundays, and suffering from a complication of liver dysfunction.

Alzheimer-Type Dementia = assay: Case 4: Alzheimer-type dementia patient
Text: Case 4: Alzheimer-Type Dementia

With `CCN(CC)C(=O)C1(c2ccccc2)CC1CN` (stereo not shown) [Milnaciplan] the back pain (Fibromyalgia [1]) was “rather deteriorated their back pain”.

With `O=C(NCCN1CCOCC1)c1ccc(Cl)cc1` [Moclobemide] the “response to earlier drugs” value (Fibromyalgia [2]) was “unresponsive”.

With `O=C([O-])[O-].[Li+].[Li+]` [Limas®] the “efficacy on manic state” value [3] was “ineffective”.

In the case of `Fc1ccc([C@@H]2CCNC[C@H]2COc2ccc3c(c2)OCO3)cc1` [Paxil®, paroxetine], the depression (depression) is reported as “without any improvement”.

In the case of `CN(C)CCC=C1c2ccccc2CCc2ccccc21` [Triptanol], the “response of fibromyalgia to earlier medicines” value (Fibromyalgia [4]) is reported as “without any improvement”.

With `CNCCC(Oc1ccc(C(F)(F)F)cc1)c1ccccc1.Cl` (stereo not shown) [Prozac®] the bulimia (Bulimia; before Cephadol) was “slightly improved the bulimia” and the “frequency of overeating and emesis” value (Bulimia; previously two to three times a day) was “reduced to once daily”.

With `N#CN` [Cyanamide] the “efficacy of earlier drugs on alcoholism” value (Alcoholism) was “without any efficacy”.

In the case of `COc1cc2c(cc1OC)C(=O)C(CC1CCN(Cc3ccccc3)CC1)C2` (stereo not shown) [donepezil hydrochloride], the dementia (Alzheimer-Type Dementia; donepezil hydrochloride together with 50 mg Cephadol before sleeping) is reported as “significant improvement of the dementia” and the “side effect that made treatment difficult” value (Alzheimer-Type Dementia; donepezil hydrochloride without Cephadol) is reported as “excitatory side effect”.
